Experimental data reported in US6623933B1 (priority 1999, dated 2003).
pEC50: −log10 of the molar value. Like-named read-outs stand apart in the source and are kept apart here.

Experiments:
NR1001/NR2A = NR1001/NR2A (Rattus norvegicus, UniProt P35439+Q00959); design: agonist Emax: dose or concentration left out as unconfirmed; conditions: NR1001/NR2A
NR1100/NR2A = NR1100/NR2A (Rattus norvegicus, UniProt P35439+Q00959); design: agonist nHill / agonist Emax: dose or concentration left out as unconfirmed; conditions: NR1100/NR2A
Chain of NR1100/NR2A (Q00959 23-1464, other chains not shown): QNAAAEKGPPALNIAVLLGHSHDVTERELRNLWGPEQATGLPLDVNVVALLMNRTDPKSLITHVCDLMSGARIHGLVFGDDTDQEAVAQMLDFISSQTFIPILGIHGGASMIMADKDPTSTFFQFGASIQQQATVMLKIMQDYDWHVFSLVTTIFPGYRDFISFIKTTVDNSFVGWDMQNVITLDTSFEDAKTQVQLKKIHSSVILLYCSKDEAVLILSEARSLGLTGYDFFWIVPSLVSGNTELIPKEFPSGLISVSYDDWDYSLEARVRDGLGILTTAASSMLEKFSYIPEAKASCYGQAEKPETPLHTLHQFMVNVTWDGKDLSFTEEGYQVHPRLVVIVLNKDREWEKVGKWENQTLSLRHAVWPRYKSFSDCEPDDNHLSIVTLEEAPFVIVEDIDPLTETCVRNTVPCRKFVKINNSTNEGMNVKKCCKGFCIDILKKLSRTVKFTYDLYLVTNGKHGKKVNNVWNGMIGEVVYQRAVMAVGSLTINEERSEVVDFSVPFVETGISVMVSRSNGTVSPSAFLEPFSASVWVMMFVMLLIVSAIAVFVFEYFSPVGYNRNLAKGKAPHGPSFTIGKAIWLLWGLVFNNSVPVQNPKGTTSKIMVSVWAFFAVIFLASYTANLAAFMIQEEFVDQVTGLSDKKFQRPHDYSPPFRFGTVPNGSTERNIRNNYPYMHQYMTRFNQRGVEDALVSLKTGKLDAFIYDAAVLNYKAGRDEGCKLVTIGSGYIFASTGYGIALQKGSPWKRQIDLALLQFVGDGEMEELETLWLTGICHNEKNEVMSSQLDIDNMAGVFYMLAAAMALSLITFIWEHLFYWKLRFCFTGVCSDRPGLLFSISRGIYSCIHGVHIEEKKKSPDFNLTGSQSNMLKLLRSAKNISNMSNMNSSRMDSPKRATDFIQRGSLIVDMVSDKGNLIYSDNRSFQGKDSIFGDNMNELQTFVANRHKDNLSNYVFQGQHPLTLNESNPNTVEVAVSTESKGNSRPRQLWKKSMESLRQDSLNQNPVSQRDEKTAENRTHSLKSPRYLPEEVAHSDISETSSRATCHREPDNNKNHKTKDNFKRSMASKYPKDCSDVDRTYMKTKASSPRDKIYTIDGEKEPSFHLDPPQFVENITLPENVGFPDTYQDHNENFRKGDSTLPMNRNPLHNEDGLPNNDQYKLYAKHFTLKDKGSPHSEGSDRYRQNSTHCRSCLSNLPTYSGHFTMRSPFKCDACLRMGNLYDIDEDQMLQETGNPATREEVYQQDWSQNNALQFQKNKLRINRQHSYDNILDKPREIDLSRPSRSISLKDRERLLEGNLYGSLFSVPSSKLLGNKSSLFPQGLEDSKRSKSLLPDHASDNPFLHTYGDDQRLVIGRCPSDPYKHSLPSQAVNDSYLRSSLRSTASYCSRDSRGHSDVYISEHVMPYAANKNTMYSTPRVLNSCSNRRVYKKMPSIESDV

NR1010/NR2A = NR1010/NR2A (Rattus norvegicus, UniProt P35439+Q00959); design: agonist nHill / agonist Emax: dose or concentration left out as unconfirmed; conditions: NR1010/NR2A
NR1/NR2A (NR1100) = NR1/NR2A (NR1100) (Rattus norvegicus, UniProt P35439+Q00959)
Description: (§1) Plasmids containing the NR1100 (NR1G) and NR2A cDNA inserts were kindly provided by Dr. Nakanishi (Kyoto University Faculty of Medicine, Kyoto, Japan). Plasmids containing the NR2B, NR2C and NR2D cDNA inserts were kindly provided by Dr. P. Seeburg (Heidelberg University, Heidelberg, Germany). Plasmids were linearized with appropriate restriction enzyme prior to in vitro transcription using the Message Machine kit (Ambion, Inc., Austin, Tex.).
(§2) Female, oocyte-positive Xenopus laevis frogs were purchased from Xenopus I (Dexter, Mich.). […] Oocytes were injected with 50 nL of RNA solutions using an electronic microinjector (Drummond Inc., Broomall, Pa.). […] The injected oocytes were used for experiments following 1-5 days of incubation in Barth's solution at 18-20° C.
(§3) The microelectrodes were fabricated from borosilicate glass capillaries with a programmed puller (Sutter Instrument Co., Calif.). Microelectrode resistance was 1-3 MΩ_when filled with 3 M KCl.
(§4) Except where otherwise stated, oocytes were clamped at a holding potential of −70 mV during data acquisition. The membrane current was filtered at 500 Hz and sampled at 100 Hz. Drugs were applied using a gravity-driven external perfusion system. The working volume of the recording chamber was 30 μl and the rate of the perfusion was 50 μl/sec. The drug application lasted 10 sec and was followed by 60 s wash. Data acquisition and external perfusion were controlled using custom-written software implemented in the SuperScope II development environment (GW Instruments, Mass.). All experiments were performed at room temperature of 22-24° C. Peak or steady-state current measurements were normalized and expressed as a fraction of the peak or steady-state control current measurements, which were performed before and after application of every single concentration of agonists or steroids.
(§5) Concentration-response data were analyzed by nonlinear regress ion using the logistic equation Response=Emax/(1+(EC50/c)^nH), where c is concentration, Emaxis the maximum response, nHis the Hill coefficient. The data are presented as mean±SEM. EC50values are averaged as logarithms (De Lean et al., Am. J. Physiol. 235: E97-E102 (1978))±the SEM of the log EC50. […] The pooled data were simultaneously fitted to the logistic equation, either with Emax and EC50 constrained to be identical in the presence and absence of PS, or allowing one or both to vary independently. […] This was regarded as indicating a significant treatment effect of PS, but the change in EC50and Emaxwas not considered significant. […] No attempt was made to test the generally small changes in nHfor statistical significance.

NR1/NR2C (NR1100) = NR1/NR2C (NR1100) (Rattus norvegicus, UniProt P35439+Q00961); conditions: NR1/NR2C
Description: as §1, §2, §3, §4, §5

NR1011/NR2A = NR1011/NR2A (Rattus norvegicus, UniProt P35439+Q00959); experiment: NMDA-induced currents of NR1 splice variants, Xenopus oocytes, Example 4; type: cell-based; design: expressed in transfected cells; host or cells: Xenopus oocytes injected with NR1011 and NR2A mRNA; conditions: NR1011/2A; for pEC50: read-out: NMDA EC50
Chain of NR1011/NR2A (Q00959 23-1464, other chains not shown): as above
Description: Overnight cultures (500 ml) of transformed bacterial cells were prepared in order to grow sufficient quantities for maxiprep isolation of the plasmid CDNA. Maxipreps were done using a Sorvall RC-5B ultracentrifuge, Qiagen columns and cDNA was quantitated with spectrophotometry (OD260 and OD260/ OD280 ratio). The resulting plasmid cDNA was linearized by digestion with an appropriate restriction enzyme that cleaves distal to the cDNA insert (XhoI for NR2A or NotI for NR1100, NR1000, NR1111, NR1011, NR1101, NR1001). […] The samples were stored at −20° C. until use.
In vitro transcription was performed using the Ambion mMessage mMachine kit with T7 (NR1100, NR1000, NR1111, NR1011, NR1101, NR1001) RNA polymerase. The reaction was assembled on ice and allowed to incubate at 37° C. for 1-2 hr. The resulting mRNA was precipitated (reaction termination) using lithium chloride/5 mM EDTA solution and dissolved in RNase-free H2O. The concentration (OD260) and OD260/OD280 ratio (should be more than 1.5) was determined by spectrophotometer. The yield of mRNA was generally 15-30 μg. mRNA was stored at −80° C. until use.
Intracellular recording microelectrodes were fabricated from 100 μl borosilicate glass disposable micropipettes using a 2-step protocol on a standard horizontal Flaming-Brown micropipette puller.

[1] = read-out: agonist EC50, +100 μM PS

Chain of NR1001/NR2A (Q00959 23-1464, other chains not shown): as above

CN[C@H](CC(=O)O)C(=O)O [NMDA, N-methyl-D-aspartate]
agonist Emax (NR1001/NR2A; absence of PS): 1.27 ± 0.04 | agonist nHill (NR1001/NR2A; absence of PS): 1.46 ± 0.07 | agonist nHill (NR1001/NR2A; presence of 100 mM PS): 1.21 ± 0.15 | agonist Emax (NR1001/NR2A; presence of PS): (2.15 ± 0.17) | agonist Emax (NR1100/NR2A; absence of PS): 1.36 ± 0.04 | agonist nHill (NR1100/NR2A; absence of PS): 1.13 ± 0.04 | agonist Emax (NR1100/NR2A; presence): (1.60 ± 0.07 | agonist nHill (NR1100/NR2A; presence): 1.20 ± 0.06 | agonist Emax (NR1010/NR2A; absence of PS): 1.18 ± 0.03 | agonist nHill (NR1010/NR2A; absence of PS): 1.19 ± 0.06 | agonist Emax (NR1010/NR2A; presence of PS): (1.53 ± 0.08) | agonist nHill (NR1010/NR2A; presence of PS): 1.13 ± 0.09 | agonist Emax (NR1/NR2A (NR1100); +100 μM PS): 1.60 | agonist nH (NR1/NR2A (NR1100); +100 μM PS): 1.20 ± 0.06 | agonist nH (NR1/NR2A (NR1100); no PS): 1.13 ± 0.04 | agonist Emax (NR1/NR2A (NR1100); no PS, normalized to 200 μM NMDA plus 10 μM glycine): 1.36 ± 0.04 | pEC50 (NR1/NR2A (NR1100); [1]): 4.41 | pEC50 (NR1/NR2A (NR1100); read-out: agonist EC50, no PS): 4.14 | agonist Emax (NR1/NR2C (NR1100); +100 μM PS): 0.69 | agonist nH (NR1/NR2C (NR1100); +100 μM PS): 1.33 ± 0.03 | agonist Emax (NR1/NR2C (NR1100); no PS): 1.05 ± 0.01 | agonist nH (NR1/NR2C (NR1100); no PS): 1.18 ± 0.02 | pEC50 (NR1/NR2C (NR1100); [1]): 4.82 | NMDA nH (NR1011/NR2A; pH 7.5, +100 μM 3α5βS): 1.35 | NMDA nH (NR1011/NR2A; pH 7.5, +100 μM PS): 1.24 | NMDA nH (NR1011/NR2A; pH 7.5, control): 1.47 | NMDA nH (NR1011/NR2A; pH 8.5, +100 μM PS): 1.44 | NMDA nH (NR1011/NR2A; pH 8.5, control): 1.62 | pEC50 (NR1011/NR2A; pH 7.5, +100 μM 3α5βS): 3.92 | pEC50 (NR1011/NR2A; pH 7.5, +100 μM PS): 4.17 | pEC50 (NR1011/NR2A; pH 7.5, control, 10 μM glycine): 4.15 | pEC50 (NR1011/NR2A; pH 8.5, +100 μM PS): 4.24 | pEC50 (NR1011/NR2A; pH 8.5, control): 4.03
